From article PMC6304572, “Simultaneous Evaluation of the Influence of Panax ginseng on the Pharmacokinetics of Three Diester Alkaloids after Oral Administration of Aconiti Lateralis Radix in Rats Using UHPLC/QQQ-MS/MS” (Evidence-based Complementary and Alternative Medicine : eCAM, 2018)

Assays:
[1] = Pharmacokinetics of three diester alkaloids in rat plasma after oral Aconiti Lateralis Radix extract, with or without 7-day P. ginseng pretreatment; assay type: in vivo, Sprague-Dawley rats; details: oral Aconiti Lateralis Radix extract 1 g/kg on 8th day
Description: Rats were randomly divided into 4 groups: control group, P. ginseng (low, middle, and high) group. 7 days of oral administration of P. ginseng extract was administered at a dosage of 0.1, 1, 10 g/kg for P. ginseng group (low, middle, and high), respectively, once daily. Distilled water was administered at a dosage of 2 ml/kg for control group, simultaneously. On the 8th day, Aconiti Lateralis Radix extracts (1 g/kg) were orally administered to all groups. 0.5 ml plasma samples were collected in 1.5 ml centrifuge tubes (containing heparin sodium) at 10, 30, 60, 90, 120, 240, 480, 720, 1440, and 2880 min. All plasma samples were centrifuged for 15 min at 4000g. The supernatant was separated to another 1.5 ml centrifuge tubes and stored at -20°C.
Liquid-liquid extraction (ethyl acetate) and protein precipitation (50% acetonitrile plus 50% methanol) methods were compared to determine the best method to prepare the plasma sample. Liquid-liquid extraction method was chosen, due to reproducibly high recovery rates. The details of the extraction are as follows: 10 μL carbamazepine (IS) was added to 90 μL plasma, spiked with 400 μL ethyl acetate and the mixture vortexed for 15 seconds. After centrifugation at 12,000g for 10 min, the supernatant was transferred to another 1.5 mL centrifuge tube and dried under a stream of nitrogen at 37°C. The residue was redissolved in 100 μL 50% acetonitrile and centrifuged at 12,000g for 10 min and filtered through a 0.22 μm Micropore membrane. A 5 μL volume of supernatant was injected into LC-MS system for analysis.
Xevo TQ-S (Waters, USA) was utilized for the analysis of all biological samples. Chromatographic separation was conducted on Waters ACQUITY UPLC HSS T3 1.8 μm column (2.1 mm × 100 mm). Column temperature was 45°C and the flow rate was 0.5ml/min. Room temperature was 20 ± 2°C. Phase A consisted of water and 0.1% formic acid (v/v), and phase B consisted of acetonitrile (ACN) 0.1% formic acid (v/v). Column separation was performed by gradient elution: 0-0.5 min, 10% B; 1-2 min, 90% B; 4 min, 10% B.
Electrospray ionization (ESI) and positive ion V mode were used to determine the samples. The main parameters for mass spectrum were set as follows: capillary voltage: 3.5 kv; sample cone: 60 v; source offset: 50 v; source temperature: 150°C; desolvation temperature: 350°C; cone gas flow: 150 L/h; desolvation gas flow: 650 L/h; injection volume: 5 μL.
The data was acquired and analyzed by XEVO-QT-S (Waters). The pharmacokinetic parameters were analyzed by DAS pharmacokinetic program (Version 2.0). SAS statistical software was used to determine the difference between each group. All data was presented as mean ± SD, and P<0.05 was considered statistically significant.

[2] = Stability of the three alkaloids in rat plasma QC samples (4°C, room temperature, freeze-thaw); assay type: in vitro ADME; details: for Freeze-thaw Accuracy: freeze-thaw three times; for Room temperature stability (24 h) Accuracy: room temperature (about 25°C)
Description: Plasma from rats without any processing was used to evaluate the detection methods. 0.1, 0.25, 0.5, 1, 2.5, 5, 10 ng/ml were chosen to calculate standards curve. 0.1, 0.4, 4, 8 ng/mL were selected as the QC sample (n = 4) with repeated operations used to calculate accuracy and precision of the detection method. The data was acquired after keeping the samples at either +4°C 24 hours or room temperature (about 25°C) for 24 hours as well as using freeze-thaw methods (three times) to evaluate stability. Recovery of the developed methods was calculated by the following formula: recovery = measured value/ theoretical value × 100%.

[3] = P. ginseng-high (10 g/kg oral, 7 days)
[4] = P. ginseng-low (0.1 g/kg oral, 7 days)
[5] = P. ginseng-middle (1 g/kg oral, 7 days)
[6] = control group (distilled water 7 days)

Structure (SMILES): COC[C@]12CN(C)[C@@H]3[C@@H]4[C@H](OC)[C@H]1[C@@]3([C@@H](OC)C[C@H]2O)[C@@H]1C[C@@]2(O)[C@H](OC(=O)c3ccccc3)[C@@H]1[C@]4(OC(C)=O)[C@@H](O)[C@@H]2OC [Mesaconitine]
- AUC(0-t) [1, 3]: 126.07 ± 44.93^∗∗ μg/L∗h
- AUC(0-∞) [1, 3]: 138.96 ± 55.36^∗∗ μg/L∗h
- CLz/F [1, 3]: 81.37 ± 29.62^∗∗ L/h/Kg
- Cmax [1, 3]: 8.94 ± 2.33^∗ μg/L
- Tmax [1, 3]: 2.20 ± 1.98 h
- Vz/F [1, 3]: 1395.19 ± 472.75^∗∗ L/kg
- t1/2z [1, 3]: 12.56 ± 4.48 h
- AUC(0-t) ([1]; P. ginseng-high (10 g/kg oral, 7 days), listed as mesaconitine): 126.07 ± 44.93 μg/L∗h
- AUC(0-t) [1, 4]: 65.53 ± 9.06 μg/L∗h
- AUC(0-∞) [1, 4]: 71.36 ± 12.85 μg/L∗h
- CLz/F [1, 4]: 144.13 ± 26.77 L/h/kg
- Cmax [1, 4]: 4.66 ± 1.03 µg/L
- Tmax [1, 4]: 0.89 ± 0.60 h
- Vz/F [1, 4]: 2386.47 ± 832.39 L/kg
- t1/2z [1, 4]: 12.12 ± 6.11 h
- AUC(0-t) [1, 5]: 82.45 ± 18.57^∗ μg/L∗h
- AUC(0-∞) [1, 5]: 87.1 ± 21.80^∗ μg/L∗h
- CLz/F [1, 5]: 120.75 ± 29.09^∗ L/h/Kg
- Cmax [1, 5]: 6.02 ± 1.63 µg/L
- Tmax [1, 5]: 1.83 ± 1.21 h
- Vz/F [1, 5]: 1745.91 ± 488.37^∗ L/kg
- t1/2z [1, 5]: 10.31 ± 3.00 h
- AUC(0-t) ([1]; P. ginseng-middle (1 g/kg oral, 7 days), listed as mesaconitine): 82.45 ± 18.57 μg/L∗h
- AUC(0-t) [1, 6]: 51.24 ± 21.48 μg/L∗h
- AUC(0-∞) [1, 6]: 58.66 ± 27.59 μg/L∗h
- CLz/F [1, 6]: 217.47 ± 130.54 L/h/kg
- Cmax [1, 6]: 5.48 ± 2.61 µg/L
- Tmax [1, 6]: 1.58 ± 1.32 h
- Vz/F [1, 6]: 3146.87 ± 1886.84 L/kg
- t1/2z [1, 6]: 13.17 ± 10.45 h
- 4°C temperature stability (24 h) Accuracy ([2]; QC conc. 0.40 ng/mL): 100.28 ± 8.73%
- Freeze-thaw Accuracy ([2]; QC conc. 0.40 ng/mL): 95.09 ± 7.31%
- Room temperature stability (24 h) Accuracy ([2]; QC conc. 0.40 ng/mL): 96.34 ± 6.95%
- 4°C temperature stability (24 h) Accuracy ([2]; QC conc. 4.00 ng/mL): 97.02 ± 9.18%
- Freeze-thaw Accuracy ([2]; QC conc. 4.00 ng/mL): 100.37 ± 8.92%
- Room temperature stability (24 h) Accuracy ([2]; QC conc. 4.00 ng/mL): 93.68 ± 2.77%
- 4°C temperature stability (24 h) Accuracy ([2]; QC conc. 8.00 ng/mL): 99.43 ± 4.57%
- Freeze-thaw Accuracy ([2]; QC conc. 8.00 ng/mL): 99.59 ± 3.35%
- Room temperature stability (24 h) Accuracy ([2]; QC conc. 8.00 ng/mL): 100.72 ± 4.78%
